# Assay results: paper PMC10730914, “Multiple independent losses of the biosynthetic pathway for two tropane alkaloids in the Solanaceae family” (Nature Communications, 2023)
# How the values were obtained:
# Conditions in all cases: 200 µM NADPH, 0.1 M potassium phosphate pH 6.4, 30 °C
# BaTRI = tested on: T1, BaTRI; assay: NADPH consumption at […] nm, Michaelis-Menten fit; assay type: biochemical, Brugmansia arborea
# T1 construct: gene TRI
# McTRI = tested on: T2, McTRI; assay: NADPH consumption at […] nm, Michaelis-Menten fit; assay type: biochemical, Mandragora caulescens
# T2 construct: gene TRI
# LcTRI = tested on: T3, LcTRI; assay: NADPH consumption at […] nm, Michaelis-Menten fit; assay type: biochemical, Lycium chinense
# T3 construct: gene TRI
# [1] = tested on: CN1[C@@H]2CC[C@H]1CC(=O)C2; assay: purified protein; assay type: biochemical, Solanum tuberosum
Molecule,Km (BaTRI),Km (McTRI),Km (LcTRI),Km [1],kcat [1]
"CN1[C@@H]2CC[C@H]1CC(=O)C2 [compound 5, tropinone]",310 ± 30 µM,90 ± 10 µM,2910 ± 140 µM,–,–
StTRI (Solanum tuberosum; A101V/A193G/L159V/V147L),–,–,–,110 ± 10 µM,–
StTRI (Solanum tuberosum; A101V/L159V),–,–,–,280 ± 70 µM,3.31 ± 0.20 s⁻¹
